Laboratory results from US5225530A, “Polypeptide useful for the preparation of antimalarial vaccines and of diagnostic kits for the detection of malarial affections” (priority 1986, dated 1993).

Tested on: sporozoites of P. falciparum
Assay: Inhibition of penetration of sporozoites into human hepatocytes
Format: cell-based
Conditions: sera of immunized C57BL/6 mice; 1:5 solution of sample; human hepatoma cells
Method: Human hepatoma cells were seeded at a concentration of 10^5 cells/chamber in Lab.-Tek plastic chambers (Miles) and cultivated for 24-48 hours
Then, to each chamber 25 μl was charged of a suspension containing 5-10^4 sporozoites of P. falciparum and 25 μl of a 1:5 solution of the sample under test.
The sporozoites were obtained from salivary glands of Anopheles stephensi infected with P. falciparum.
Two and six days later, the number of infected hepatocytes was determined by immunofluorescence by using monoclonal anti-P. falciparum CS protein antibodies.

Substance: (Asn--Ala--Asn--Pro)40 [(NANP)40]
- inhibition of the penetration of the sporozoites of P. falciparum into the hepatic cells: < 86%
